Calls of active or inactive are those of the source. The rule behind the calls is not given here.
Key:
[1] = test system: HCT-116; assay: Growth inhibition of HCT116 cells by MTT assay; type: functional, cell-based; settings: Homo sapiens
[2] = test system: PC-3; assay: Growth inhibition of PC3 cells; settings: Homo sapiens
[3] = target: Casein kinase II subunit alpha (Zea mays, UniProt P28523); assay: Inhibition of corn CK2 alpha
Chain of Casein kinase II subunit alpha (P28523 whole entry): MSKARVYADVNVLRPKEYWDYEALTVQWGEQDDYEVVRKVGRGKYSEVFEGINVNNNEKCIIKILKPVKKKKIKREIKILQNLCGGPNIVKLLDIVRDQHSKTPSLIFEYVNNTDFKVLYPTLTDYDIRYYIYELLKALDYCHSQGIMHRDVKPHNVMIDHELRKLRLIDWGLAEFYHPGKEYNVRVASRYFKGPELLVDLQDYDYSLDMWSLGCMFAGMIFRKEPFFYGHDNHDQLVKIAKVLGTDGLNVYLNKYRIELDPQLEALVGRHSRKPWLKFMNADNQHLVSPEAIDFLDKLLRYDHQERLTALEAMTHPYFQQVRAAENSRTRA

SMILES	IC50 [1] [µM]	further results
CC(=O)Nc1cccc(Nc2nc(Nc3ccc(CN4CCNCC4)cc3)n3ncc(C#N)c3n2)c1	1.06	IC50 [2]: 1.4 µM
CC(=O)Nc1cccc(Nc2nc(NC3CC3)n3ncc(Br)c3n2)c1	18	
CC(=O)Nc1cccc(Nc2nc(Nc3ccccc3)n3ncc(C#N)c3n2)c1	0.99	
CC(=O)Nc1cccc(Nc2nc(Nc3cccc(OC(F)F)c3)n3ncc(C#N)c3n2)c1	2.1	IC50 [2]: 1.7 µM
CN(c1ccccc1)c1nc(Nc2ccccc2)n2ncc(C#N)c2n1		Ki [3]: 0.242 µM
CC(=O)Nc1cccc(Nc2nc(Nc3cccc(C(=O)O)c3)n3ncc(C#N)c3n2)c1		Activity [1]: inactive
CCN(CC)Cc1ccc(Nc2nc(Nc3cccc(NC(C)=O)c3)nc3c(C#N)cnn23)cc1	2.2	
CCOc1cccc(Nc2nc(Nc3cccc(NC(C)=O)c3)nc3c(C#N)cnn23)c1	1.48	IC50 [2]: 1.2 µM
CC(=O)Nc1cccc(Nc2nc(Nc3cccc(C(=O)N4CCCC4)c3)n3ncc(C#N)c3n2)c1	1.4	IC50 [2]: 0.78 µM
CC(=O)Nc1cccc(Nc2nc(NC3CC3)n3ncc(C#N)c3n2)c1	2.3	
CCN(CC)C(=O)c1cccc(Nc2nc(Nc3cccc(NC(C)=O)c3)nc3c(C#N)cnn23)c1	0.76	IC50 [2]: 0.61 µM
CC(=O)Nc1cccc(Nc2nc(NC3CCC3)n3ncc(C#N)c3n2)c1	5.5	
CC(=O)Nc1cccc(Nc2nc(Nc3cccc(C(=O)NCCN(C)C)c3)n3ncc(C#N)c3n2)c1	39	
N#Cc1cnn2c(Nc3ccccc3)nc(Nc3ccccc3)nc12		Ki [3]: 0.024 µM
CC(=O)Nc1cccc(Nc2nc(Nc3ccccc3)n3ncc(C)c3n2)c1	7.6	
CC(=O)Nc1cccc(Nc2nc(NC3CC3)n3ncc(C)c3n2)c1	43	
CCN(CC)c1cccc(Nc2nc(Nc3cccc(NC(C)=O)c3)nc3c(C#N)cnn23)c1	2.5	
